# Measurements taken from patent publication US20120165376A1, “STABILIZED MICROBICIDAL COMPOSITION” (priority 2010, published 2012).
# Assays:
# Format in all cases: physicochemical
# [1] = Storage stability of formulations having 20% DBNPA and 6% BNPD: oven at 45° C., loss after 28 days
# Experimental: These formulations were prepared and placed in an oven at 45° C. and analyzed for loss of the biocides after 28 days.
# [2] = Storage stability of formulations having 20% DBNPA, 6% BNPD and 1.25% CMI/MI (3:1): oven at 40° C., loss of biocides after 60 days; conditions: 6% BNPD
# Experimental: These formulations were prepared from salt-free CMI/MI biocide, except as otherwise indicated. They were placed in an oven at 40° C. and analyzed for loss of the biocides after 60 days.
# [3] = Storage stability of formulations having 10-20% DBNPA, without BNPD or CMI/MI: oven at 45° C., loss after 28 days
# Experimental: These were prepared and placed in an oven at 45° C. and analyzed for loss of the biocides after 28 days. […]=diethylene glycol monomethyl ether.
# [4] = Storage stability of formulations having 20% DBNPA and 0.25% CMI/MI (3:1): oven at 45° C., loss after 28 days
# Experimental: These formulations were prepared, using salt-free CMI/MI and placed in an oven at 45° C. and analyzed for loss of the biocides after 28 days.
# [5] = glycerin 0%, water 20%, DPG 54, 20% DBNPA
# [6] = glycerin 0%, water 20%, TetEG 54, 20% DBNPA
# [7] = glycerin 10%, water 5%, DPG 60, 20% DBNPA
# [8] = glycerin 10%, water 5%, TetEG 60, 20% DBNPA
# [9] = glycerin 10%, water 10%, DPG 54, 20% DBNPA
# [10] = glycerin 10%, water 10%, TetEG 54, 20% DBNPA
# [11] = glycerin 20%, water 10%, DPG 44, 20% DBNPA
# [12] = glycerin 20%, water 10%, TEG 44, 20% DBNPA
# [13] = glycerin 20%, water 10%, TetEG 44, 20% DBNPA
# [14] = glycerin 30%, water 5%, DPG 39, 20% DBNPA
# [15] = glycerin 30%, water 5%, TetEG 39, 20% DBNPA
# [16] = glycerin 30%, water 10%, DPG 34, 20% DBNPA
# [17] = glycerin 30%, water 10%, TetEG 34, 20% DBNPA
# [18] = glycerin 30%, water […]%, DPG 29, 20% DBNPA, result believed to be erroneous
# [19] = glycerin 30%, water […]%, TetEG 29, 20% DBNPA
# [20] = glycerin 0%, water 10%, TEG-mono-butyl ether 59.5%
# [21] = glycerin 0%, water 20%, TEG 49.5%
# [22] = glycerin 0%, water 20%, TEG-mono-butyl ether 49.5%
# [23] = glycerin 0%, water 30%, TEG 39.5%
# [24] = glycerin 0%, water 30%, TEG-mono-butyl ether 39.5%
# [25] = glycerin 10%, water 10%, TEG 49.5%
# [26] = glycerin 10%, water 20%, TEG-mono-butyl ether 39.5%
# [27] = glycerin 10%, water 30%, TEG-mono-butyl ether 29.5%
# [28] = glycerin 20%, water 10%, TEG 39.5%
# [29] = glycerin 20%, water 20%, TEG 29.5%
smiles,measurement,setting,value
"O=[N+]([O-])C(Br)(CO)CO [BNPD, 2-bromo-2-nitro-1,3-propanediol]","BNPD loss, %",[1]; [5],1.5%
same,"BNPD loss, %","[1]; glycerin 0%, water 20%, TEG 54, 20% DBNPA",7%
same,"BNPD loss, %",[1]; [6],0%
same,"BNPD loss, %",[1]; [7],1%
same,"BNPD loss, %",[1]; [8],6%
same,"BNPD loss, %",[1]; [9],0.5%
same,"BNPD loss, %",[1]; [10],8.5%
same,"BNPD loss, %",[1]; [11],1.5%
same,"BNPD loss, %",[1]; [12],4%
same,"BNPD loss, %",[1]; [13],3%
same,"BNPD loss, %",[1]; [14],1.5%
same,"BNPD loss, %",[1]; [15],1.5%
same,"BNPD loss, %",[1]; [16],1%
same,"BNPD loss, %",[1]; [17],2%
same,"BNPD loss, %",[1]; [18],12.5^1%
same,"BNPD loss, %",[1]; [19],3.5%
same,"BNPD loss, %","[2]; glycerin 0%, water 10%, TEG 59.5%",3%
same,"BNPD loss, %",[2]; [20],0%
same,"BNPD loss, %",[2]; [21],1%
same,"BNPD loss, %",[2]; [22],0%
same,"BNPD loss, %",[2]; [23],3%
same,"BNPD loss, %",[2]; [24],3%
same,"BNPD loss, %",[2]; [25],3%
same,"BNPD loss, %","[2]; glycerin 10%, water 10%, TEG-mono-butyl ether 49.5%",3%
same,"BNPD loss, %","[2]; glycerin 10%, water 20%, TEG 39.5%",3%
same,"BNPD loss, %",[2]; [26],3%
same,"BNPD loss, %",[2]; [27],4%
same,"BNPD loss, %",[2]; [28],3%
same,"BNPD loss, %","[2]; glycerin 20%, water 10%, TEG-mono-butyl ether 39.5%",3%
same,"BNPD loss, %",[2]; [29],4%
"N#CC(Br)(Br)C(N)=O [DBNPA, 2,2-dibromo-3-nitrilopropionamide]","DBNPA loss, %","[3]; glycerin 30%, water 5%, TEG 45, 20% DBNPA",3^ %
same,"DBNPA loss, %","[3]; glycerin 45%, water 5%, TEG 30, 20% DBNPA",3^ %
same,"DBNPA loss, %","[3]; glycerin 65%, water […]%, DEGMME 10, only 10% DBNPA",95^1%
same,"DBNPA loss, %","[3]; glycerin 65%, water […]%, TEG 10, only 10% DBNPA",3^1%
same,"DBNPA loss, %","[3]; glycerin 65%, water […]%, TetEG 10, only 10% DBNPA",95^1%
same,"DBNPA loss, %",[1]; [5],3.5%
same,"DBNPA loss, %",[1]; [6],2%
same,"DBNPA loss, %",[1]; [7],7%
same,"DBNPA loss, %",[1]; [8],5%
same,"DBNPA loss, %",[1]; [9],6%
same,"DBNPA loss, %",[1]; [10],7%
same,"DBNPA loss, %",[1]; [11],3%
same,"DBNPA loss, %",[1]; [12],7%
same,"DBNPA loss, %",[1]; [13],7%
same,"DBNPA loss, %",[1]; [14],2%
same,"DBNPA loss, %",[1]; [15],2.5%
same,"DBNPA loss, %",[1]; [16],3%
same,"DBNPA loss, %",[1]; [17],3%
same,"DBNPA loss, %",[1]; [18],14^1%
same,"DBNPA loss, %",[1]; [19],4.5%
same,"DBNPA loss, %","[4]; glycerin 0%, water 20%, DPG 59, 20% DBNPA, 0.25% CMI/MI (3:1)",10%
same,"DBNPA loss, %","[4]; glycerin 0%, water 20%, TetEG 59, 20% DBNPA, 0.25% CMI/MI (3:1)",4%
same,"DBNPA loss, %","[4]; glycerin 10%, water 5%, DPG 64, 20% DBNPA, 0.25% CMI/MI (3:1), result believed to be erroneous",27^1%
same,"DBNPA loss, %","[4]; glycerin 10%, water 5%, TetEG 64, 20% DBNPA, 0.25% CMI/MI (3:1)",2.5%
same,"DBNPA loss, %","[4]; glycerin 10%, water 10%, DPG 59, 20% DBNPA, 0.25% CMI/MI (3:1)",7%
same,"DBNPA loss, %","[4]; glycerin 10%, water 10%, TetEG 59, 20% DBNPA, 0.25% CMI/MI (3:1)",3.5%
same,"DBNPA loss, %","[4]; glycerin 20%, water 10%, DPG 49, 20% DBNPA, 0.25% CMI/MI (3:1)",3.5%
same,"DBNPA loss, %","[4]; glycerin 20%, water 10%, TEG 49, 20% DBNPA, sample had 1% CMI/MI",6%
same,"DBNPA loss, %","[4]; glycerin 20%, water 10%, TetEG 49, 20% DBNPA, 0.25% CMI/MI (3:1)",3.5%
same,"DBNPA loss, %","[4]; glycerin 30%, water 5%, DPG 44, 20% DBNPA, 0.25% CMI/MI (3:1)",6%
same,"DBNPA loss, %","[4]; glycerin 30%, water 5%, TetEG 44, 20% DBNPA, 0.25% CMI/MI (3:1)",6%
same,"DBNPA loss, %","[4]; glycerin 30%, water 10%, DPG 39, 20% DBNPA, 0.25% CMI/MI (3:1)",4%
same,"DBNPA loss, %","[4]; glycerin 30%, water 10%, TetEG 39, 20% DBNPA, 0.25% CMI/MI (3:1)",2.5%
same,"DBNPA loss, %","[4]; glycerin 30%, water 20%, DPG 29, 20% DBNPA, 0.25% CMI/MI (3:1)",4%
same,"DBNPA loss, %","[4]; glycerin 30%, water 20%, TetEG 29, 20% DBNPA, 0.25% CMI/MI (3:1)",3.5%
same,"DBNPA loss, %","[4]; glycerin 30%, water […]%, DPG 34, 20% DBNPA, 0.25% CMI/MI (3:1)",3.5%
same,"DBNPA loss, %","[4]; glycerin 30%, water […]%, TetEG 34, 20% DBNPA, 0.25% CMI/MI (3:1)",3%
same,"DBNPA loss, %",[2]; [20],40%
same,"DBNPA loss, %",[2]; [21],10%
same,"DBNPA loss, %",[2]; [22],18%
same,"DBNPA loss, %",[2]; [23],16%
same,"DBNPA loss, %",[2]; [24],18%
same,"DBNPA loss, %",[2]; [25],6%
same,"DBNPA loss, %",[2]; [26],14%
same,"DBNPA loss, %",[2]; [27],18%
same,"DBNPA loss, %",[2]; [28],5%
same,"DBNPA loss, %",[2]; [29],14%
